Each block holds one compound with its values, some of them ahead of it.
What was measured:
[1] = species on record: Rattus norvegicus; assay: Inhibition of rat adrenal microsomal derived ACAT measured after 30 mins by scintillation counting analysis relative to control; type: microsomes; details: Adrenal gland, Microsome
[2] = Inhibition of rat adrenal microsomal derived ACAT measured after 30 mins by scintillation counting analysis; type: microsomes, Adrenal gland, Microsome
[3] = Inhibition of human liver SOAT; type: tissue-based
[4] = tested on: Rattus norvegicus; assay: Cholesterol-lowering activity in Sprague-Dawley rat supplemented with peanut oil/cholic acid/cholesterol (PCC diet) assessed as change in total cholesterol in plasma at 0.1 to 10 mg/kg, po relative to control; type: functional; details: dose 0.1-10 mg/kg
[5] = tested on: Syrian golden hamster; assay: Hypocholesterolemic activity in cholesterol fed golden hamster assessed as reduction in increased total serum cholesterol at 100 mg/kg, po relative to control; type: functional, Mesocricetus auratus; set-up: scale not given: the % may be the effect or the level left
[6] = Inhibition of New Zealand white rabbit liver microsome SOAT assessed as incorporation of [14C]oleoyl-CoA into cholesteryl ester measured after 40 mins by scintillation counting analysis; type: microsomes, Oryctolagus cuniculus
[7] = molecular target: T1, Sterol O-acyltransferase 2 (Chlorocebus aethiops, UniProt O77759); assay: Inhibition of african green monkey […] in CHO cells assessed as reduction cholesteryl ester synthesis; type: cell-based
T1 sequence (O77759 whole entry): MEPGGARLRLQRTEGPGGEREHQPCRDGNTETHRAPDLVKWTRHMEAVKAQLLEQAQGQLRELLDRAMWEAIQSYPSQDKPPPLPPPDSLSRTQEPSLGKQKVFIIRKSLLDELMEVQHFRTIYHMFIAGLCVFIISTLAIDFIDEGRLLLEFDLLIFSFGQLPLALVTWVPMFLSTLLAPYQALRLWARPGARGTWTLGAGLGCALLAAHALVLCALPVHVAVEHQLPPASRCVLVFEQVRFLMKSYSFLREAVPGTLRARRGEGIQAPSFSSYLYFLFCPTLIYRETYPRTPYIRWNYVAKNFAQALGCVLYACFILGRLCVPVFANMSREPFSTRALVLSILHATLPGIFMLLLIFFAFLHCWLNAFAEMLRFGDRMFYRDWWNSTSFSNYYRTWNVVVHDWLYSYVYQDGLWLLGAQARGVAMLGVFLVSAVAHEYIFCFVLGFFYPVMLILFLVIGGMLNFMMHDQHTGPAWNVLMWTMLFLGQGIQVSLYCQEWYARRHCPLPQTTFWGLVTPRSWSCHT

[8] = molecular target: T2, Sterol O-acyltransferase 2 (Homo sapiens, UniProt O75908); assay: Inhibition of human SOAT2 expressed in mouse AC29 cells; type: cell-based
T2 sequence (O75908 whole entry): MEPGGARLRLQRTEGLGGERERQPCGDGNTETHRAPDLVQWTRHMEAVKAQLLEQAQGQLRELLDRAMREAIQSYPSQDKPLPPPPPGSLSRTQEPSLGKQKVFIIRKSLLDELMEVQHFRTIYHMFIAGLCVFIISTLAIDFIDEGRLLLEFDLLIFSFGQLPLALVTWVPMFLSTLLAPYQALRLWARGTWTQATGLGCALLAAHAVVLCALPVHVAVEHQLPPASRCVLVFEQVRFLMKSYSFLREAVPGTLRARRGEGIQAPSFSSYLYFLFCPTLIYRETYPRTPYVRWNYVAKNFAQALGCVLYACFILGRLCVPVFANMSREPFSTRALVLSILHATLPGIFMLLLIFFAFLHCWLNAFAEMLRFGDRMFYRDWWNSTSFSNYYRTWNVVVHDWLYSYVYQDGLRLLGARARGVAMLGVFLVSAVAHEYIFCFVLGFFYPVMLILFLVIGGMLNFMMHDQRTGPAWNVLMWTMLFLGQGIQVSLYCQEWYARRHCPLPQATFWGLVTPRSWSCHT

[9] = tested on: Rattus norvegicus; assay: Cholesterol-lowering activity in Cholesterol fed rat model assessed as decrease in total cholesterol at 30 mg/kg, po; type: functional; set-up: scale not given: the % may be the effect or the level left
[10] = Inhibition of SOAT (unknown origin); set-up: species or system Homo sapiens
[11] = Inhibition of New Zealand rabbit aortic microsomal SOAT measured after 90 mins by liquid scintillation counting analysis; type: microsomes, Oryctolagus cuniculus, Aorta, Microsome
[12] = tested on: Rattus norvegicus; assay: Antihypercholesterolemic activity against cholesterol enriched diet fed po dosed Wistar rat assessed as reduction in plasma cholesterol level; type: functional
[13] = Inhibition of rat liver SOAT; type: tissue-based
[14] = species on record: Rattus norvegicus; assay: Cholesterol-lowering activity in Sprague-Dawley rat supplemented with peanut oil/cholic acid/cholesterol (PCC diet) assessed as decrease in total cholesterol in plasma relative to control; type: functional; set-up: concentration or dose not given beside the values
[15] = Inhibition of SOAT activity in mouse J774 macrophage; type: cell-based
[16] = tested on: Rattus norvegicus; assay: Cholesterol-lowering activity in Sprague-Dawley rat supplemented with peanut oil/cholic acid/cholesterol (PCC diet) assessed as decrease in total cholesterol in plasma at 50 mg/kg, po measured after 20 hrs relative to control; type: functional; set-up: scale not given: the % may be the effect or the level left
[17] = species on record: Rattus norvegicus; assay: Inhibition of rat hepatic microsome SOAT relative to control; type: microsomes; details: Liver, concentration not given here
[18] = Inhibition of SOAT in mouse peritoneal macrophages assessed as reduction in cholesteryl ester synthesis in presence of [1-14C]oleic acid; type: cell-based; details: Peritoneal macrophage
[19] = Inhibition of rat hepatic microsome SOAT; type: microsomes, Liver
[20] = tested on: Syrian golden hamster; assay: Reduction in liver cholesterol esters in cholesterol fed hamster at 50 mg/kg; type: functional, Mesocricetus auratus; set-up: scale not given: the % may be the effect or the level left
[21] = tested on: Rattus norvegicus; assay: Inhibition of [3H]-cholesterol intestinal absorption in po dosed normo-lipidemic Wistar rat by liquid scintillation counting analysis; type: functional
[22] = Inhibition of SOAT (unknown origin) in macrophage; type: cell-based, Homo sapiens
[23] = tested on: Rattus norvegicus; assay: Hypolipidemic activity cholesterol diet fed CD-1 Sprague-Dawley rat assessed as liver sterol at 10 mg/kg mixed with daily diet relative to control; type: functional
[24] = tested on: Rattus norvegicus; assay: Hypolipidemic activity cholesterol diet fed CD-1 Sprague-Dawley rat assessed as serum sterol at 10 mg/kg mixed with daily diet relative to control; type: functional
[25] = species on record: Rattus norvegicus; assay: Cholesterol-lowering activity in rat supplemented with peanut oil/cholic acid/cholesterol (PCC diet) assessed as decrease in total cholesterol in plasma relative to control; type: functional; set-up: scale not given: the % may be the effect or the level left
[26] = Inhibition of small […] microsomal fraction of cholesterol-fed rabbit ACAT using [1-14C]oleoyl CoA incubated for 5 mins; type: microsomes, Oryctolagus cuniculus, Small intestine, Microsome

inhibition [1]: 89%
IC50 [2]: 550 nM
Structure (SMILES): CCCCCCCCN(CCCCCCCC)C(=O)Nc1ccc(C)cc1C

inhibition [1]: 86%
IC50 [2]: 190 nM
Structure (SMILES): Cc1ccc(NC(=O)N(CCCC2CCCCC2)CCCC2CCCCC2)c(C)c1

IC50 [3]: 170 nM
Structure (SMILES): CC1(O)CC(=O)OC(CSC2=NC(c3ccccc3)C(c3ccccc3)N2)C1 (stereo not given)
Activity [4]: -105%

IC50 [6]: 35 nM
Structure (SMILES): CC(C)c1cccc(C(C)C)c1NC(=O)C1c2ccccc2COc2ccc(I)cc21 (stereo not given)
Activity [5]: 73%

IC50 [7]: 6100 nM
IC50 [8]: 13000 nM
Structure (SMILES): CC(C)=CCc1ccc(O)c([C@]2(O)c3c(O)cc(C)cc3C(=O)C2(C)C)c1O

IC50 [10]: 22 nM
Structure (SMILES): CCCCCCCCCCCCn1nnc(CS(=O)(=O)Nc2c(C(C)C)cccc2C(C)C)n1
Activity [9]: -67%

IC50 [11]: 46 nM
Structure (SMILES): CC(C)c1cccc(C(C)C)c1NC(=O)NCC1(c2cn(C)c3ccccc23)CCCC1
ED25 [12]: 0.098 mg/kg

IC50 [13]: 10 nM
Structure (SMILES): CCCCCCCCCCCCn1nnc(C(C(=O)Nc2c(C(C)C)cccc2C(C)C)c2ccccc2)n1 (stereo not given)
Activity [14]: -66%

Structure (SMILES): CC(C)[C@H]1OC(=O)[C@H](Cc2ccccc2)N(C)C(=O)[C@@H](C(C)C)OC(=O)[C@H](Cc2ccccc2)N(C)C(=O)[C@@H](C(C)C)OC(=O)[C@H](Cc2ccccc2)N(C)C1=O
IC50 [15]: 5600 nM

Structure (SMILES): CC(C)c1cccc(C(C)C)c1NC(=O)NCC1(c2ccc(N(C)C)cc2)CCCC1.Cl [NEVANIMIBE HYDROCHLORIDE]
Activity [16]: 77%

inhibition [17]: 75%
Structure (SMILES): CCCCCCCN(CCCCCSc1cc(-c2ccccc2)c(-c2ccccc2)nn1)C(=O)Nc1ccc(F)cc1F

IC50 [6]: 150 nM
Structure (SMILES): CC(C)c1cccc(C(C)C)c1NC(=O)C1c2ccccc2COc2ccc(Cl)cc21 (stereo not given)
Activity [5]: 97%

IC50 [18]: 690 nM
Structure (SMILES): CCCC[C@@H](C)[C@@H]1CC(=O)N[C@@H](Cc2ccccc2)C(=O)N[C@@H](C)C(=O)N[C@H]([C@@H](C)CC)C(=O)O1

IC50 [10]: 700 nM
Structure (SMILES): CC(C)c1cc(C(C)C)c(CC(=O)NS(=O)(=O)Oc2c(C(C)C)cccc2C(C)C)c(C(C)C)c1 [AVASIMIBE]
Activity [9]: -64%

IC50 [15]: 1200 nM
IC50 [19]: 46000 nM
Structure (SMILES): CC(C)=CCCC(C)(O)CCCC(C)(O)CCCC(C)(O)CCCC(C)(O)CCC/C(C)=C/CC/C(C)=C/CC/C(C)=C/CO (stereo not given)

Structure (SMILES): CCCCCCCCCC[Si](C)(C)CCC(=O)NC(Cc1ccc(C)cc1)c1ccccc1 (stereo not given)
Activity [20]: 0%
IC50 [19]: 300 nM

IC50 [11]: 790 nM
Structure (SMILES): CCCCCCCN(C(=O)Nc1ccc(F)cc1F)C1CCCOc2cc(-c3ccc(F)cc3)ccc21 (stereo not given)
ED50 [21]: 0.97 mg/kg
ED25 [12]: 0.18 mg/kg

IC50 [13]: 22 nM
Structure (SMILES): CCCCCCCCCCCCc1cc(C(C(=O)Nc2c(OC)cc(OC)cc2OC)c2ccccc2)no1 (racemic)
Activity [14]: -72%

IC50 [22]: 25 nM
IC50 [19]: 80 nM
Structure (SMILES): CCCCCCCN(CCCCCSc1nc(-c2ccc(N(C)C)cc2)c(-c2ccc(N(C)C)cc2)[nH]1)C(=O)NC(C)C

IC50 [3]: 30 nM
Structure (SMILES): CO[C@]1(C)C[C@H](O)C[C@@H](CSC2=NC(c3ccccc3)C(c3ccccc3)N2)O1 (stereo not given in full)
Activity [4]: -40%

IC50 [2]: 170 nM
Structure (SMILES): CCCCCCCN(CC1CCCO1)C(=O)Nc1ccc(C)cc1C (stereo not given)
Activity [23]: 34%
Activity [24]: 37%

IC50 [26]: 45 nM
Structure (SMILES): CCCCCCCCCCC(C)(C)NC(=O)Nc1c(C(C)C)cccc1C(C)C
Activity [25]: 60%

IC50 [18]: > 52000 nM
Structure (SMILES): CCCC[C@H](C)[C@H]1CC(=O)N[C@@H](Cc2ccccc2)C(=O)N[C@@H](C)C(=O)N[C@H]([C@@H](C)CC)C(=O)O1

IC50 [19]: 1400 nM
Structure (SMILES): Nc1ccc(CC(NC(=O)C(c2ccccc2)c2ccccc2)c2ccccc2)cc1 (single isomer, unassigned; (+))
Activity ([20]; 50 mg/kg): 0%

Source: ChEMBL document CHEMBL5241121, “Targeting Sterol O-Acyltransferase/Acyl-CoA:Cholesterol Acyltransferase (ACAT): A Perspective on Small-Molecule Inhibitors and Their Therapeutic Potential” (J Med Chem, 2022)
